The text below walks through data of patent US12209087B2, “AKT1 modulators” (Alterome Therapeutics, Inc., priority 2022, dated 2025).

The IC50 is the concentration that gives 50% inhibition.

The target in the first assay is T1, full length AKT E17K (Homo sapiens, UniProt P31749, E17K).
T1 construct: host or cells: HEK-293 (ATCC CRL-1573)
T1 sequence (P31749 whole entry E17K): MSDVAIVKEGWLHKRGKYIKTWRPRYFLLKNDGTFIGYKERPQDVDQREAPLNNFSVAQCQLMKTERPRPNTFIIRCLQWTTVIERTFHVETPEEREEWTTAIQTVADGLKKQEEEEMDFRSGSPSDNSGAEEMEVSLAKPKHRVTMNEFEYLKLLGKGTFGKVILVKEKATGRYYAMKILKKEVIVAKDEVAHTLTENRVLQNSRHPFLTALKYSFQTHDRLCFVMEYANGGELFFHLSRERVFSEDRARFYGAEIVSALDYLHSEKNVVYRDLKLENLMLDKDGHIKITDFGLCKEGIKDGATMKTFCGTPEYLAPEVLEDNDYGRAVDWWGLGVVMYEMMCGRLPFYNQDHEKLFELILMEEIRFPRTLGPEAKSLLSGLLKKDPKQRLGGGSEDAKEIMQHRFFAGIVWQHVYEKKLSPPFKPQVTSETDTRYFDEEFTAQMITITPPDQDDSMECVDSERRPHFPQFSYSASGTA
Put plainly: NanoBRET Target Engagement (TE) Assay. Format: cell-based. The following applies: competitive displacement of tracer in cells, read-out: AKT1 E17K IC50. Summed up: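 Compound and tracer incubated 2 h before luminescence at donor 450 nm and acceptor 600 nm, with extracellular signal inhibited. EC50 by sigmoidal variable-slope regression.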
For orientation: Bioluminescence resonance energy transfer reports proximity on the nanometre scale.
With `COc1cnc(-c2ccc3nc(-c4cccnc4N)n(-c4ccc(CN5CCC(Nc6ccnc(C#N)n6)CC5)cc4)c3n2)cn1` [Example 583, 4-((1-(4-(2-(2-Aminopyridin-3-yl)-5-(5-methoxypyrazin-2-yl)-3H-imidazo[4,5-b]pyridin-3-yl)benzyl)piperidin-4-yl)amino)pyrimidine-2-carbonitrile], the IC50 was below 15 nM. On to `CSc1ccc2nc(-c3cccnc3N)n(-c3ccc(CN4CCC(Nc5ccnc(C#N)n5)CC4)cc3)c2n1` [Example 435, 4-((1-(4-(2-(2-Aminopyridin-3-yl)-5-(methylthio)-3H-imidazo[4,5-b]pyridin-3-yl)benzyl)piperidin-4-yl)amino)pyrimidine-2-carbonitrile], for which the half-maximal inhibitory concentration (IC50) was below 15 nM.

On to `N#Cc1nccc(NC2CCN(Cc3ccc(-n4c(-c5cccnc5N)nc5ccc(C(=O)O)nc54)cc3)CC2)n1` [Example 415, 2-(2-Aminopyridin-3-yl)-3-(4-((4-((2-cyanopyrimidin-4-yl)amino)piperidin-1-yl)methyl)phenyl)-3H-imidazo[4,5-b]pyridine-5-carboxylic acid], for which the IC50 was 600 to 10000 nM. Regarding `Cc1cc(-c2ccc3nc(-c4cccnc4N)n(-c4ccc(CN5CCC(Nc6ccnc(C#N)n6)CC5)cc4)c3n2)[nH]n1` [Example 465, 4-((1-(4-(2-(2-Aminopyridin-3-yl)-5-(3-methyl-1H-pyrazol-5-yl)-3H-imidazo[4,5-b]pyridin-3-yl)benzyl)piperidin-4-yl)amino)pyrimidine-2-carbonitrile], the IC50 is below 15 nM.

Regarding `N#Cc1nccc(NC2CCN(Cc3ccc(-n4c(-c5cccnc5N)nc5ccc(-c6ccc(C(F)(F)F)cn6)nc54)cc3)CC2)n1` [Example 650, 4-((1-(4-(2-(2-Aminopyridin-3-yl)-5-(5-(trifluoromethyl)pyridin-2-yl)-3H-imidazo[4,5-b]pyridin-3-yl)benzyl)piperidin-4-yl)amino)pyrimidine-2-carbonitrile], the IC50 fell in the range of 15 to 60 nM. Same read-out and setting: the result for `Cc1nn(C)nc1-c1ccc2nc(-c3cccnc3N)n(-c3ccc(CN4CCC(Nc5ccnc(C#N)n5)CC4)cc3)c2n1` [Example 614, 4-((1-(4-(2-(2-Aminopyridin-3-yl)-5-(2,5-dimethyl-2H-1,2,3-triazol-4-yl)-3H-imidazo[4,5-b]pyridin-3-yl)benzyl)piperidin-4-yl)amino)pyrimidine-2-carbonitrile] reads below 15 nM; that for `N#Cc1nccc(N2C[C@@H]3C[C@H]2CN3Cc2ccc(-n3c(-c4cccnc4N)nc4ccc(-c5ccccc5)nc43)cc2)n1` [Example 375, 4-((1S,4S)-5-(4-(2-(2-Aminopyridin-3-yl)-5-phenyl-3H-imidazo[4,5-b]pyridin-3-yl)benzyl)-2,5-diazabicyclo[2.2.1]heptan-2-yl)pyrimidine-2-carbonitrile], 15 to 60 nM. As to `N#Cc1cccc(-c2ccc3nc(-c4cccnc4N)n(-c4ccc(CN5CCC(Nc6ccnc(C#N)n6)CC5)cc4)c3n2)n1` [Example 428, 4-((1-(4-(2-(2-Aminopyridin-3-yl)-5-(6-cyanopyridin-2-yl)-3H-imidazo[4,5-b]pyridin-3-yl)benzyl)piperidin-4-yl)amino)pyrimidine-2-carbonitrile], the IC50 is 15 to 60 nM.

In the case of `Cc1cccc(-c2ccc3nc(-c4cccnc4N)n(-c4ccc(CN5CCC(Nc6ccnc(C#N)n6)CC5)cc4)c3n2)c1` [Example 528, 4-((1-(4-(2-(2-Aminopyridin-3-yl)-5-(m-tolyl)-3H-imidazo[4,5-b]pyridin-3-yl)benzyl)piperidin-4-yl)amino)pyrimidine-2-carbonitrile], the IC50 is below 15 nM.

`N#Cc1nccc(NC2CCN(Cc3ccc(-n4c(-c5cccnc5N)nc5ccc(C(F)(F)F)nc54)cc3)CC2)n1` [Example 410, 4-((1-(4-(2-(2-Aminopyridin-3-yl)-5-(trifluoromethyl)-3H-imidazo[4,5-b]pyridin-3-yl)benzyl)piperidin-4-yl)amino)pyrimidine-2-carbonitrile]: the concentration for half-maximal inhibition (IC50) was below 15 nM. With `Cn1ccc(-c2ccc3nc(-c4cccnc4N)n(-c4ccc(CN5CCC(Nc6ccnc(C#N)n6)CC5)cc4)c3n2)cc1=O` [Example 359, 4-((1-(4-(2-(2-aminopyridin-3-yl)-5-(1-methyl-2-oxo-1,2-dihydropyridin-4-yl)-3H-imidazo[4,5-b]pyridin-3-yl)benzyl)piperidin-4-yl)amino)pyrimidine-2-carbonitrile], the concentration for half-maximal inhibition (IC50) is below 15 nM. On the same count and under the same terms, the result for `Cn1cc(-c2ccc3nc(-c4cccnc4N)n(-c4ccc(CN5CCC(Nc6ccnc(C#N)n6)CC5)cc4)c3n2)nn1` [Example 438, 4-((1-(4-(2-(2-Aminopyridin-3-yl)-5-(1-methyl-1H-1,2,3-triazol-4-yl)-3H-imidazo[4,5-b]pyridin-3-yl)benzyl)piperidin-4-yl)amino)pyrimidine-2-carbonitrile] reads below 15 nM. Still for that read-out and setting: the figure for `C[C@@H]1CN(Cc2ccc(-n3c(-c4cccnc4N)nc4ccc(-c5ccccc5)nc43)cc2)C[C@H](C)N1c1ccnc(C#N)n1` [Example 378, 4-((2S,6R)-4-(4-(2-(2-Aminopyridin-3-yl)-5-phenyl-3H-imidazo[4,5-b]pyridin-3-yl)benzyl)-2,6-dimethylpiperazin-1-yl)pyrimidine-2-carbonitrile] is 60 to 600 nM. Still for that read-out and setting: the figure for `C#Cc1ccc2nc(-c3cccnc3N)n(-c3ccc(CN4CCC(Nc5ccnc(C#N)n5)CC4)cc3)c2n1` [Example 513, 4-((1-(4-(2-(2-Aminopyridin-3-yl)-5-ethynyl-3H-imidazo[4,5-b]pyridin-3-yl)benzyl)piperidin-4-yl)amino)pyrimidine-2-carbonitrile] is below 15 nM. As to `Cn1ccc(-c2ccc3nc(-c4cccnc4N)n(-c4ccc(CN5CCC(Nc6nccc(C#N)n6)CC5)cc4)c3n2)cc1=O` [Example 360, 2-((1-(4-(2-(2-Aminopyridin-3-yl)-5-(1-methyl-2-oxo-1,2-dihydropyridin-4-yl)-3H-imidazo[4,5-b]pyridin-3-yl)benzyl)piperidin-4-yl)amino)pyrimidine-4-carbonitrile], the IC50 lay within 60 to 600 nM.

The same assay, now with this note: competitive tracer displacement in living cells, read-out: AKT1 E17K IC50.
Turning to `N#Cc1cncc(N2CCN(Cc3ccc(-n4c(-c5cccnc5N)nc5ccc(-c6ccccc6)nc54)cc3)CC2)c1` [Example 65, 5-(4-(4-(2-(2-Aminopyridin-3-yl)-5-phenyl-3H-imidazo[4,5-b]pyridin-3-yl)benzyl)piperazin-1-yl)nicotinonitrile], the IC50 lay within 60 to 600 nM.

On to `N#Cc1nccc(NC2CCN(Cc3ccc(-n4c(-c5cccnc5N)nc5ccc(C6CC6)nc54)cc3)CC2)n1` [Example 298, 4-((1-(4-(2-(2-Aminopyridin-3-yl)-5-cyclopropyl-3H-imidazo[4,5-b]pyridin-3-yl)benzyl)piperidin-4-yl)amino)pyrimidine-2-carbonitrile], for which the IC50 was below 15 nM.

Turning to `N#Cc1nccc(N2CCN(Cc3ccc(-n4c(-c5cccnc5N)nc5ccc(C6CC6)nc54)cc3)CC2)n1` [Example 258, 4-(4-(4-(2-(2-Aminopyridin-3-yl)-5-cyclopropyl-3H-imidazo[4,5-b]pyridin-3-yl)benzyl)piperazin-1-yl)pyrimidine-2-carbonitrile], the 50% inhibitory concentration (IC50) was below 15 nM. Still for that read-out and setting: the figure for `N#Cc1ccnc(N2CCCN(Cc3ccc(-n4c(-c5cccnc5N)nc5ccc(-c6ccccc6)nc54)cc3)CC2)n1` [Example 228, 2-(4-(4-(2-(2-Aminopyridin-3-yl)-5-phenyl-3H-imidazo[4,5-b]pyridin-3-yl)benzyl)-1,4-diazepan-1-yl)pyrimidine-4-carbonitrile] is 15 to 60 nM; for `N#Cc1cc(NC2CCN(Cc3ccc(-n4c(-c5cccnc5N)nc5cccnc54)cc3)CC2)ncn1` [Example 64, 6-((1-(4-(2-(2-aminopyridin-3-yl)-3H-imidazo[4,5-b]pyridin-3-yl)benzyl)piperidin-4-yl)amino)pyrimidine-4-carbonitrile] it is 600 to 10000 nM.

With `N#Cc1nc(C(=O)N2CCN(Cc3ccc(-n4c(-c5cccnc5N)nc5ccc(-c6ccccc6)nc54)cc3)CC2)cs1` [Example 247, 4-(4-(4-(2-(2-Aminopyridin-3-yl)-5-phenyl-3H-imidazo[4,5-b]pyridin-3-yl)benzyl)piperazine-1-carbonyl)thiazole-2-carbonitrile], the 50% inhibitory concentration (IC50) was below 15 nM. On to `N#Cc1ccc(C(=O)N2CCN(Cc3ccc(-n4c(-c5cccnc5N)nc5ccc(-c6ccccc6)nc54)cc3)CC2)nc1` [Example 142, 6-(4-(4-(2-(2-Aminopyridin-3-yl)-5-phenyl-3H-imidazo[4,5-b]pyridin-3-yl)benzyl)piperazine-1-carbonyl)nicotinonitrile], for which the IC50 fell in the range of 600 to 10000 nM. On the same count and under the same terms, the figure for `N#Cc1nc2cc(C(=O)N3CCN(Cc4ccc(-n5c(-c6cccnc6N)nc6ccc(-c7ccccc7)nc65)cc4)CC3)ccc2s1` [Example 184, 5-(4-(4-(2-(2-aminopyridin-3-yl)-5-phenyl-3H-imidazo[4,5-b]pyridin-3-yl)benzyl)piperazine-1-carbonyl)benzo[d]thiazole-2-carbonitrile] is below 15 nM.

In the case of `N#Cc1cccnc1OC1CCN(Cc2ccc(-n3c(-c4cccnc4N)nc4ccc(-c5ccccc5)nc43)cc2)CC1` [Example 9, 2-((1-(4-(2-(2-Aminopyridin-3-yl)-5-phenyl-3H-imidazo[4,5-b]pyridin-3-yl)benzyl)piperidin-4-yl)oxy)nicotinonitrile], the IC50 is 60 to 600 nM.

Consider `N#Cc1cc(C(=O)NC2CCN(Cc3ccc(-n4c(-c5cccnc5N)nc5cc(-c6ccccc6)cnc54)cc3)CC2)ccn1` [Example 107, N-(1-(4-(2-(2-Aminopyridin-3-yl)-6-phenyl-3H-imidazo[4,5-b]pyridin-3-yl)benzyl)piperidin-4-yl)-2-cyanoisonicotinamide], for which the IC50 lay in the range of 600 to 10000 nM. Same read-out and setting: the result for `N#Cc1ccnc(N2CCN(Cc3ccc(-n4c(-c5cccnc5N)nc5ccc(-c6ccccc6)nc54)cc3)CC2)c1` [Example 66, 2-(4-(4-(2-(2-Aminopyridin-3-yl)-5-phenyl-3H-imidazo[4,5-b]pyridin-3-yl)benzyl)piperazin-1-yl)isonicotinonitrile] reads 600 to 10000 nM. As for `N#Cc1cccc(N2CCN(Cc3ccc(-n4c(-c5cccnc5N)nc5cccnc54)cc3)CC2)n1` [Example 15, 6-(4-(4-(2-(2-Aminopyridin-3-yl)-3H-imidazo[4,5-b]pyridin-3-yl)benzyl)piperazin-1-yl)picolinonitrile], the IC50 fell in the range of 600 to 10000 nM.
